Legend:
[1] = system: PGE2 synthesis by 3T3 fibroblasts; assay: Inhibition of PGE2 synthesis by 3T3 fibroblasts (ELISA); assay type: cell-based; conditions: for [PGE2]: 24 h
Source text: This Example establishes the anti-inflammatory potential of GC-100 by measuring the inhibition of PGE2 synthesis by 3T3 fibroblasts in cell culture.
The cells are nourished in a medium enriched with arachidonic acid which leads to increased secretion of eicosanoids into the medium.
The formation of prostaglandin PGE2 will be followed as a marker of eicosanoid synthesis, because it is a stable molecule secreted preferentially by 3T3 fibroblasts. The anti-inflammatory potential of an active ingredient may then be investigated by following the decrease in secretion of PGE2 in the culture medium.
Quantification of PGE2 will be achieved using an enzyme-linked immunosorbant assay (ELISA). In principle, the PGE2 expressed by the cells in culture medium will compete with enzyme-linked PGE2 for available antibody, which is a constant. The concentration of enzyme-linked PGE2 is also constant and quantified prior to testing. The enzyme linked to PGE2 prior to testing is acetylcholinesterase. Since the quantity of PGE2 expressed by 3T3 cells in culture will vary based on the concentration of GC-100 present, the amount of antibody available to bind to the enzyme-linked PGE2 versus that produced by the 3T3 cells assumes an inverse relationship that is dependent on Brownian motion. After eliminating unreacted PGE2 through washing, substrate is added that binds to the enzyme-PGE2-antibody complex to generate a yellow color that is strongly evident using spectrophotometer set at 412 nm. The amount of light transmitted through the test sample is directly proportional to the intensity of the color change and, consequently, to the concentration of PGE2-enzyme-antibody complex.
Create a mother solution (solution #1) containing complete DMEM, alcohol, and 2×10^5 3T3 fibroblasts for plating onto 25 cm^2 culture dishes. Using a compounding dilution technique, prepare the following solutions, using 5 mL of media per plate: • Solution #2: Solution #1 plus arachidonic acid (10^−3% P/V) • Solution #3: Solution #2 plus indomethacin (0,1,10^−3% P/V) • Solution #4: Solution #2 plus GC-100 0.5% • Solution #5: Solution #2 plus GC-100 1.0%
Incubate all preparations for 24 hours at 37° C. Recover the supernatant media, and if needed deep freeze it at −20° C. before quantification. Count the number of surviving cells using a coulter counter. Establish a calibration curve of the quantity of PGE2. Quantify the supernatant media using an enzyme-linked immunosorbant assay kit specific for PGE2 (Cayman), using a Dynotech microplate reader (MR500) with a filter set at 412 nm. Calculate the % inhibition of PGE2 synthesis. The results are shown in Table 4 and FIG. 10, which is a graph showing mean suppression of PGE2 concentration in test media comprising indomethacin or GC-100.

[2] = system: collagen I and III synthesis; assay: [3H]-Proline incorporation as measure of collagen deposition; assay type: cell-based, human
Source text: This human skin substrate consists of neonatal foreskin fibroblasts that secrete a functionally active extracellular matrix grown on a medical-grade nylon mesh cocultured with human neonatal foreskin keratinocytes that differentiate into a multilayered epidermis.
Quantifying proline incorporation can be used to measure potential collagen deposition stimulated by a test substance. This concept is the foundation for the following experiments.

[3] = DMEM + AA + Indomethacin, column A
[4] = DMEM + AA + Indomethacin, column B
[5] = DMEM + AA + Indomethacin, column C

`COc1ccc2c(c1)c(CC(=O)O)c(C)n2C(=O)c1ccc(Cl)cc1` [Indomethacin, indomethacin, reference compound] was tested, and the “% change of PGE2 vs DMEM + AA, MEAN” value ([1]; DMEM + AA + Indomethacin) was −87.2%, the “% change of PGE2 vs DMEM + AA” value [1, 3] was −91% and the “[PGE2]” value [1, 3] was 0.27 pg/mL. For the same compound, the “% change of PGE2 vs DMEM + AA” value [1, 4] was −88%, the “[PGE2]” value [1, 4] was 0.35 pg/mL and the “% change of PGE2 vs DMEM + AA” value [1, 5] was −82.6%. The “[PGE2]” value [1, 5] was 0.50 pg/mL and the “suppression of PGE2 expression” value ([1]; indomethacin) was 87%.
`ClCc1ccccc1` [benzyl chloride] was tested, and the “proline incorporation relative to control levels” value [2] was “suppress proline incorporation below control levels”.
`O=C1O[C@H]([C@@H](O)CO)C(O)=C1O` [ascorbic acid] was tested, and the “influence of ascorbic acid on proline incorporation” value ([2]; higher than optimal concentrations of ascorbic acid) was “suppress proline incorporation”.
